{
  "source": "paper PMC6915728",
  "about": "(Nature Communications, 2019)",
  "key": {"[1]": {"test_system": "E. coli BW25113 ΔmlaD", "assay": "MIC, serial broth dilution, mlaD knockout strain vs wild type", "type": "cell-based, Escherichia coli", "conditions": "mlaD deletion strain relative to control (E. coli BW25113); 3 replicates each; from optical density values of serial dilution plates, AMP in µg ml-1", "protocol": "What could be the mechanism behind the antagonistic action of this pathway on membrane- versus intracellular-targeting AMPs? Since MlaD is part of a protein complex, it may lead to a loss-of-function effect upon overexpression[41],[42]. To test this, we asked whether overexpression and deletion of mlaD cause similar changes in susceptibility to a representative set of membrane- and intracellular-targeting AMPs.\n(§1) Minimum inhibitory concentrations (MIC) were determined with a standard serial broth dilution technique with a minor modification. Specifically, instead of a two-fold dilution series, smaller AMP concentration steps were used (typically 1.2-fold) for two reasons. […] Second, gene overexpressions caused typically only small changes in the MICs of AMPs and therefore higher resolution was required. The protocol was as follows. From a stock solution of an AMP, 12-steps serial dilution was prepared in fresh MS medium in 96-well microtiter plates. Each AMP was represented in 11 different concentrations (3 wells per AMP concentration per strain). Three wells contained only medium to check the growth in the absence of AMP. After overnight growth in MS medium supplemented with chloramphenicol, bacterial strains were diluted 20-fold into fresh MS medium and grown until the cell density reached OD600 ~1. Cells were induced by 100 µM of IPTG and incubated for 1 h at 30 °C with continuous shaking at 300 rpm. Following incubation, approximately half-million cells were inoculated into the wells of the 96-well microtiter plate with a 96‐pin replicator. We used three independent replicates for each strain and the corresponding control. Two rows in the 96-well plate contained only MS medium in order to obtain the background OD value of the medium. Plates were incubated at 30 °C with continuous shaking at 300 rpm. After 20–24 h of incubation, OD600 values were measured in a microplate reader (Biotek Synergy 2).\nA mlaD knockout strain of E. coli BW25113 carrying a kanamycin resistance cassette in the position of the gene was selected from the KEIO collection. The resistance marker was removed using plasmid-borne (pFT-A) expression of FLP recombinase leading to excision of the kanamycin resistance cassette. Cassette excision was verified by a polymerase chain reaction using the primers mlaD_del_ver_Fw (5′- […]) and mlaD_del_ver_Rev (5′- […]).\nSupplementary Figure 13. […] The bacterial susceptibility of the mutant to AMPs was tested by MIC determination. Growth is shown relative to growth in the absence of the corresponding AMP. The blue line represents the mlaD knockout strain and the orange line represents the control strain (wild-type E. coli BW25113). Error bars indicate the standard errors based on three biological replicates. Source data are provided in the Source Data file."}, "[2]": {"test_system": "bacterial species in which the gene showed activity", "conditions": "cited from earlier work"}, "[3]": {"test_system": "E. coli BW25113 overexpression strains (ASKA plasmids)", "assay": "Minimum inhibitory concentration (MIC), serial broth dilution, single-gene overexpression strains vs empty-vector control", "type": "cell-based, Escherichia coli", "conditions": "for Relative MIC: broth dilution, MS medium, 100 µM IPTG, 30 °C, 20-24 h, OD600, 3 replicates", "protocol": "as §1"}, "[4]": {"test_system": "bacterial membrane", "conditions": "literature mining; ref superscript numbers in the cell, listed in Supplementary Data 7 sheet References; cited from earlier work", "description": "Supplement 41467_2019_13618_MOESM10_ESM.xlsx, sheet \"AMP details\" | column: Pore formation"}, "[5]": {"test_system": "AMP-evolved E. coli lines", "conditions": "ref Spohn et al 2019, cited from earlier work", "description": "Supplement 41467_2019_13618_MOESM13_ESM.xlsx, sheet \"Figure 6 and S15\" | column: A comprehensive dataset of antimicrobial susceptibility of AMP-adapted lines to antimicrobial peptides (AMPs)."}, "[6]": {"conditions": "overexpression strain narY, MIC of overexpression strain / MIC of empty-plasmid control"}},
  "note": "Where two headings read alike, the source gives them in different places.",
  "data": [
    {"substance": "GIINTLQKYYRVRGGRAVLSLPKEEQIGKSTRGRKRRKK [HBD3, Human beta-defensin-3, human host-defense peptide; cluster C2]", "values": [
      {"measurement": "Average relative change in MIC", "setting": "[1]", "value": 1.56},
      {"measurement": "Gene that modulates bacterial susceptibility to the AMP", "setting": "[2]; Staphylococcus epidermidis, ref http://onlinelibrary.wiley.com/doi/10.1046/j.1462-5822.2004.00367.x/epdf", "value": "icaA(ica operon)"},
      {"measurement": "Average relative change in MIC", "setting": "[3]; mlaD overexpression strain relative to control (wild-type+empty vector), 3 replicates each, from optical density values of serial dilution plates, AMP in µg ml-1", "value": 1.75},
      {"measurement": "Relative MIC", "setting": "[3]; overexpression strain hyfA, MIC of overexpression strain / MIC of empty-plasmid control", "value": 0.8},
      {"measurement": "Relative MIC", "setting": "[3]; overexpression strain mlaD, MIC of the overexpression strain / MIC of the control strain (wild-type carrying the empty plasmid)", "value": ">1.55"},
      {"measurement": "Relative MIC", "setting": "[3]; [6]", "value": 0.8}
    ]},
    {"substance": "Peptide glycine-leucine amide [PGLA]", "values": [
      {"measurement": "Gene that modulates bacterial susceptibility to the AMP", "setting": "[2]; Salmonella typhimurium, Salmonella typhi, ref http://www.sciencedirect.com/science/article/pii/S009286740081750X", "value": "pagP"},
      {"measurement": "Relative MIC", "setting": "[3]; overexpression strain gadW, MIC of overexpression strain / MIC of empty-plasmid control", "value": 0.63},
      {"measurement": "Relative MIC", "setting": "[3]; overexpression strain lptB, MIC of overexpression strain / MIC of empty-plasmid control", "value": 1.66},
      {"measurement": "Relative MIC", "setting": "[3]; overexpression strain mlaC, MIC of overexpression strain / MIC of empty-plasmid control", "value": 1.3},
      {"measurement": "Relative MIC", "setting": "[3]; overexpression strain mzrA, MIC of overexpression strain / MIC of empty-plasmid control", "value": 1.2},
      {"measurement": "Relative MIC", "setting": "[3]; [6]", "value": 0.8},
      {"measurement": "Relative MIC", "setting": "[3]; overexpression strain nikB, MIC of overexpression strain / MIC of empty-plasmid control", "value": 1.25},
      {"measurement": "Relative MIC", "setting": "[3]; overexpression strain ptsN, MIC of overexpression strain / MIC of empty-plasmid control", "value": 0.71},
      {"measurement": "Relative MIC", "setting": "[3]; overexpression strain uhpC, MIC of overexpression strain / MIC of empty-plasmid control", "value": 1.25},
      {"measurement": "Pore formation (whether AMP makes pores in the bacterial membrane)", "setting": "[4]", "value": "Yes10,11"},
      {"measurement": "Relative change in MIC (MIC of the AMP-adpated line / MIC of the ancestral strain)", "setting": "[5]; AMP-adapted line BAC5_3", "value": 1.4},
      {"measurement": "Relative change in MIC (MIC of the AMP-adpated line / MIC of the ancestral strain)", "setting": "[5]; AMP-adapted line BAC5_5", "value": 1.1},
      {"measurement": "Relative change in MIC (MIC of the AMP-adpated line / MIC of the ancestral strain)", "setting": "[5]; AMP-adapted line BAC5_7", "value": 0.9},
      {"measurement": "Relative change in MIC (MIC of the AMP-adpated line / MIC of the ancestral strain)", "setting": "[5]; AMP-adapted line BAC5_10", "value": 1.3},
      {"measurement": "Relative change in MIC (MIC of the AMP-adpated line / MIC of the ancestral strain)", "setting": "[5]; AMP-adapted line CAP18_2", "value": 2.5},
      {"measurement": "Relative change in MIC (MIC of the AMP-adpated line / MIC of the ancestral strain)", "setting": "[5]; AMP-adapted line CAP18_5", "value": 5.2},
      {"measurement": "Relative change in MIC (MIC of the AMP-adpated line / MIC of the ancestral strain)", "setting": "[5]; AMP-adapted line CAP18_6", "value": 1.6},
      {"measurement": "Relative change in MIC (MIC of the AMP-adpated line / MIC of the ancestral strain)", "setting": "[5]; AMP-adapted line CAP18_8", "value": 3},
      {"measurement": "Relative change in MIC (MIC of the AMP-adpated line / MIC of the ancestral strain)", "setting": "[5]; AMP-adapted line CAP18_10", "value": 4.3},
      {"measurement": "Relative change in MIC (MIC of the AMP-adpated line / MIC of the ancestral strain)", "setting": "[5]; AMP-adapted line HBD3_3", "value": 2.3},
      {"measurement": "Relative change in MIC (MIC of the AMP-adpated line / MIC of the ancestral strain)", "setting": "[5]; AMP-adapted line HBD3_6", "value": 3.6},
      {"measurement": "Relative change in MIC (MIC of the AMP-adpated line / MIC of the ancestral strain)", "setting": "[5]; AMP-adapted line HBD3_8", "value": 3.3},
      {"measurement": "Relative change in MIC (MIC of the AMP-adpated line / MIC of the ancestral strain)", "setting": "[5]; AMP-adapted line HBD3_10", "value": 1.9},
      {"measurement": "Relative change in MIC (MIC of the AMP-adpated line / MIC of the ancestral strain)", "setting": "[5]; AMP-adapted line LL37_1", "value": 1.4},
      {"measurement": "Relative change in MIC (MIC of the AMP-adpated line / MIC of the ancestral strain)", "setting": "[5]; AMP-adapted line LL37_3", "value": 1.9},
      {"measurement": "Relative change in MIC (MIC of the AMP-adpated line / MIC of the ancestral strain)", "setting": "[5]; AMP-adapted line LL37_6", "value": 1.8},
      {"measurement": "Relative change in MIC (MIC of the AMP-adpated line / MIC of the ancestral strain)", "setting": "[5]; AMP-adapted line LL37_7", "value": 5.2},
      {"measurement": "Relative change in MIC (MIC of the AMP-adpated line / MIC of the ancestral strain)", "setting": "[5]; AMP-adapted line LL37_10", "value": 1.8},
      {"measurement": "Relative change in MIC (MIC of the AMP-adpated line / MIC of the ancestral strain)", "setting": "[5]; AMP-adapted line PEX_1", "value": 3.5},
      {"measurement": "Relative change in MIC (MIC of the AMP-adpated line / MIC of the ancestral strain)", "setting": "[5]; AMP-adapted line PEX_4", "value": 3.5},
      {"measurement": "Relative change in MIC (MIC of the AMP-adpated line / MIC of the ancestral strain)", "setting": "[5]; AMP-adapted line PEX_5", "value": 1.9},
      {"measurement": "Relative change in MIC (MIC of the AMP-adpated line / MIC of the ancestral strain)", "setting": "[5]; AMP-adapted line PEX_6", "value": 2.1},
      {"measurement": "Relative change in MIC (MIC of the AMP-adpated line / MIC of the ancestral strain)", "setting": "[5]; AMP-adapted line PEX_7", "value": 2.9},
      {"measurement": "Relative change in MIC (MIC of the AMP-adpated line / MIC of the ancestral strain)", "setting": "[5]; AMP-adapted line PR39_1", "value": 1.6},
      {"measurement": "Relative change in MIC (MIC of the AMP-adpated line / MIC of the ancestral strain)", "setting": "[5]; AMP-adapted line PR39_2", "value": 1.5},
      {"measurement": "Relative change in MIC (MIC of the AMP-adpated line / MIC of the ancestral strain)", "setting": "[5]; AMP-adapted line PR39_5", "value": 0.8},
      {"measurement": "Relative change in MIC (MIC of the AMP-adpated line / MIC of the ancestral strain)", "setting": "[5]; AMP-adapted line PR39_7", "value": 1.5},
      {"measurement": "Relative change in MIC (MIC of the AMP-adpated line / MIC of the ancestral strain)", "setting": "[5]; AMP-adapted line PR39_10", "value": 0.4},
      {"measurement": "Relative change in MIC (MIC of the AMP-adpated line / MIC of the ancestral strain)", "setting": "[5]; AMP-adapted line PROA_2", "value": 1.6},
      {"measurement": "Relative change in MIC (MIC of the AMP-adpated line / MIC of the ancestral strain)", "setting": "[5]; AMP-adapted line PROA_3", "value": 1.1},
      {"measurement": "Relative change in MIC (MIC of the AMP-adpated line / MIC of the ancestral strain)", "setting": "[5]; AMP-adapted line PROA_7", "value": 0.6},
      {"measurement": "Relative change in MIC (MIC of the AMP-adpated line / MIC of the ancestral strain)", "setting": "[5]; AMP-adapted line PROA_8", "value": 1.2},
      {"measurement": "Relative change in MIC (MIC of the AMP-adpated line / MIC of the ancestral strain)", "setting": "[5]; AMP-adapted line PROA_9", "value": 0.9},
      {"measurement": "Relative change in MIC (MIC of the AMP-adpated line / MIC of the ancestral strain)", "setting": "[5]; AMP-adapted line PXB_2", "value": 1.8},
      {"measurement": "Relative change in MIC (MIC of the AMP-adpated line / MIC of the ancestral strain)", "setting": "[5]; AMP-adapted line PXB_5", "value": 1.5},
      {"measurement": "Relative change in MIC (MIC of the AMP-adpated line / MIC of the ancestral strain)", "setting": "[5]; AMP-adapted line PXB_6", "value": 8},
      {"measurement": "Relative change in MIC (MIC of the AMP-adpated line / MIC of the ancestral strain)", "setting": "[5]; AMP-adapted line PXB_8", "value": 4.5},
      {"measurement": "Relative change in MIC (MIC of the AMP-adpated line / MIC of the ancestral strain)", "setting": "[5]; AMP-adapted line PXB_10", "value": 5.5}
    ]}
  ]
}
